Results as given in ChEMBL document CHEMBL3885861, “Open TG-GATES”.

Species: Rattus norvegicus
Assay: Open TG-GATES - Regimen: Daily Repeat
Assay type: toxicity, organism-based, Sprague-Dawley
Set-up: regimen Daily Repeat, gender Male, age 6 weeks
Settings: in vivo, po, 1000 mg/kg, route gavage, dose level High; for APTT / Bas / Eos / Fbg / Hb / Ht / Lym / MCH / MCHC / MCV / Mono / Neu / PT / Plat / RBC / Ret / WBC: tissue Blood; for KIDNEY_L / KIDNEY_R / KIDNEY_TOTAL: tissue Kidney; for LIVER: tissue Liver; for A/G / ALP / ALT / AST / BUN / CRE / Ca / Cl / DBIL / GLC / IP / K / LDH / Na / PL / RALB / TBIL / TC / TG / TP / gamma-GTP: tissue Plasma

**Q.** Which results are given for `CCCCNC(=O)NS(=O)(=O)c1ccc(C)cc1` [TOLBUTAMIDE]?
**A.** TERMINAL_BW (72 h, time 3 day): 225.8 g; APTT (72 h, time 3 day): 17.7 s; Bas (72 h, time 3 day): 0%; Eos (72 h, time 3 day): 1%; Fbg (72 h, time 3 day): 301.6 mg/dL; Hb (72 h, time 3 day): 13.7 g/dL; Ht (72 h, time 3 day): 41.6%; Lym (72 h, time 3 day): 81%; MCH (72 h, time 3 day): 21.2 pg; MCHC (72 h, time 3 day): 33%; MCV (72 h, time 3 day): 64.2 fL; Mono (72 h, time 3 day): 2.2%; Neu (72 h, time 3 day): 15.2%; PT (72 h, time 3 day): 12.8 s; Plat (72 h, time 3 day): 129.6 x10_4/uL; RBC (72 h, time 3 day): 647.4 x10_4/ul; Ret (72 h, time 3 day): 4.2%; WBC (72 h, time 3 day): 89.2 x10_2/uL; KIDNEY_L (72 h, time 3 day): 1 g; KIDNEY_R (72 h, time 3 day): 1 g; KIDNEY_TOTAL (72 h, time 3 day): 2.1 g; LIVER (72 h, time 3 day): 11.5 g; A/G (72 h, time 3 day): 0.9; ALP (72 h, time 3 day): 1487 IU/L; ALT (72 h, time 3 day): 40.8 IU/L; AST (72 h, time 3 day): 69.6 IU/L; BUN (72 h, time 3 day): 12.8 mg/dL; CRE (72 h, time 3 day): 0.2 mg/dL; Ca (72 h, time 3 day): 11 mg/dL; Cl (72 h, time 3 day): 105.2 meq/L; DBIL (72 h, time 3 day): 0.004 mg/dL; GLC (72 h, time 3 day): 172 mg/dL; IP (72 h, time 3 day): 7.9 mg/dL; K (72 h, time 3 day): 3.9 meq/L; LDH (72 h, time 3 day): 75.6 IU/L; Na (72 h, time 3 day): 142.4 meq/L; PL (72 h, time 3 day): 144 mg/dL; RALB (72 h, time 3 day): 2.6 g/dL; TBIL (72 h, time 3 day): 0.06 mg/dL; TC (72 h, time 3 day): 76.8 mg/dL; TG (72 h, time 3 day): 68 mg/dL; TP (72 h, time 3 day): 5.5 g/dL; gamma-GTP (72 h, time 3 day): 1 IU/L; TERMINAL_BW ([…], time 7 day): 255.2 g; TERMINAL_BW ([…], time 14 day): 306.7 g; TERMINAL_BW ([…], time 28 day): 411.9 g; APTT ([…], time 7 day): 18.1 s; Bas ([…], time 7 day): 0.4%; Eos ([…], time 7 day): 0.6%; Fbg ([…], time 7 day): 267.4 mg/dL; Hb ([…], time 7 day): 13.7 g/dL; Ht ([…], time 7 day): 41.4%; Lym ([…], time 7 day): 80%; MCH ([…], time 7 day): 20.5 pg; MCHC ([…], time 7 day): 33.1%; MCV ([…], time 7 day): 61.9 fL; Mono ([…], time 7 day): 2.4%; Neu ([…], time 7 day): 16.2%; PT ([…], time 7 day): 12.9 s; Plat ([…], time 7 day): 112 x10_4/uL; RBC ([…], time 7 day): 669.6 x10_4/ul; Ret ([…], time 7 day): 5.3%; WBC ([…], time 7 day): 138.8 x10_2/uL; APTT ([…], time 14 day): 19.2 s; Bas ([…], time 14 day): 0.4%; Eos ([…], time 14 day): 0.8%; Fbg ([…], time 14 day): 320 mg/dL; Hb ([…], time 14 day): 14.3 g/dL; Ht ([…], time 14 day): 43.7%; Lym ([…], time 14 day): 82.8%; MCH ([…], time 14 day): 19.3 pg; MCHC ([…], time 14 day): 32.7%; MCV ([…], time 14 day): 59.1 fL; Mono ([…], time 14 day): 1.8%; Neu ([…], time 14 day): 13.8%; PT ([…], time 14 day): 12.5 s; Plat ([…], time 14 day): 127.9 x10_4/uL; RBC ([…], time 14 day): 740 x10_4/ul; Ret ([…], time 14 day): 4.3%; WBC ([…], time 14 day): 116.4 x10_2/uL; APTT ([…], time 28 day): 25 s; Bas ([…], time 28 day): 0.2%; Eos ([…], time 28 day): 1%; Fbg ([…], time 28 day): 269.5 mg/dL; Hb ([…], time 28 day): 15 g/dL; Ht ([…], time 28 day): 45%; Lym ([…], time 28 day): 84.5%; MCH ([…], time 28 day): 18.6 pg; MCHC ([…], time 28 day): 33.5%; MCV ([…], time 28 day): 55.6 fL; Mono ([…], time 28 day): 2%; Neu ([…], time 28 day): 11.2%; PT ([…], time 28 day): 13.5 s; Plat ([…], time 28 day): 102.5 x10_4/uL; RBC ([…], time 28 day): 808.8 x10_4/ul; Ret ([…], time 28 day): 2.1%; WBC ([…], time 28 day): 118.3 x10_2/uL; KIDNEY_L ([…], time 7 day): 1.1 g; KIDNEY_R ([…], time 7 day): 1.1 g; KIDNEY_TOTAL ([…], time 7 day): 2.2 g; KIDNEY_L ([…], time 14 day): 1.2 g; KIDNEY_R ([…], time 14 day): 1.2 g; KIDNEY_TOTAL ([…], time 14 day): 2.4 g; KIDNEY_L ([…], time 28 day): 1.4 g; KIDNEY_R ([…], time 28 day): 1.3 g; KIDNEY_TOTAL ([…], time 28 day): 2.7 g; LIVER ([…], time 7 day): 12.3 g; LIVER ([…], time 14 day): 15 g; LIVER ([…], time 28 day): 18.7 g; A/G ([…], time 7 day): 0.9; ALP ([…], time 7 day): 1609.6 IU/L; ALT ([…], time 7 day): 48.6 IU/L; AST ([…], time 7 day): 71.4 IU/L; BUN ([…], time 7 day): 14.8 mg/dL; CRE ([…], time 7 day): 0.2 mg/dL; Ca ([…], time 7 day): 10.7 mg/dL; Cl ([…], time 7 day): 104 meq/L; DBIL ([…], time 7 day): 0.008 mg/dL; GLC ([…], time 7 day): 189.6 mg/dL; IP ([…], time 7 day): 7.7 mg/dL; K ([…], time 7 day): 4 meq/L; LDH ([…], time 7 day): 55.8 IU/L; Na ([…], time 7 day): 141.8 meq/L; PL ([…], time 7 day): 151.8 mg/dL; RALB ([…], time 7 day): 2.5 g/dL; TBIL ([…], time 7 day): 0.052 mg/dL; TC ([…], time 7 day): 74.2 mg/dL; TG ([…], time 7 day): 94.2 mg/dL; TP ([…], time 7 day): 5.4 g/dL; gamma-GTP ([…], time 7 day): 0.8 IU/L; A/G ([…], time 14 day): 0.9; ALP ([…], time 14 day): 1494.8 IU/L; ALT ([…], time 14 day): 42.4 IU/L; AST ([…], time 14 day): 63.4 IU/L; BUN ([…], time 14 day): 15 mg/dL; CRE ([…], time 14 day): 0.2 mg/dL; Ca ([…], time 14 day): 10.9 mg/dL; Cl ([…], time 14 day): 104.6 meq/L; DBIL ([…], time 14 day): 0.01 mg/dL; GLC ([…], time 14 day): 192.6 mg/dL; IP ([…], time 14 day): 6.8 mg/dL; K ([…], time 14 day): 3.8 meq/L; LDH ([…], time 14 day): 49.4 IU/L; Na ([…], time 14 day): 142.4 meq/L; PL ([…], time 14 day): 157.2 mg/dL; RALB ([…], time 14 day): 2.7 g/dL; TBIL ([…], time 14 day): 0.056 mg/dL; TC ([…], time 14 day): 72 mg/dL; TG ([…], time 14 day): 136.8 mg/dL; TP ([…], time 14 day): 5.9 g/dL; gamma-GTP ([…], time 14 day): 1 IU/L; A/G ([…], time 28 day): 0.8; ALP ([…], time 28 day): 1194 IU/L; ALT ([…], time 28 day): 36.5 IU/L; AST ([…], time 28 day): 59 IU/L; BUN ([…], time 28 day): 17.2 mg/dL; CRE ([…], time 28 day): 0.3 mg/dL; Ca ([…], time 28 day): 10.8 mg/dL; Cl ([…], time 28 day): 105.2 meq/L; DBIL ([…], time 28 day): 0.01 mg/dL; GLC ([…], time 28 day): 203.2 mg/dL; IP ([…], time 28 day): 6.5 mg/dL; K ([…], time 28 day): 3.7 meq/L; LDH ([…], time 28 day): 53.5 IU/L; Na ([…], time 28 day): 143.2 meq/L; PL ([…], time 28 day): 132 mg/dL; RALB ([…], time 28 day): 2.7 g/dL; TBIL ([…], time 28 day): 0.05 mg/dL; TC ([…], time 28 day): 58.2 mg/dL; TG ([…], time 28 day): 111.5 mg/dL; TP ([…], time 28 day): 6 g/dL; gamma-GTP ([…], time 28 day): 1 IU/L
